# Test results reported in patent US12350270B2, “Antimalarial agents” (Merck Sharp & Dohme LLC, priority 2019, dated 2025).
# Test system: parasites (ring stage, in human red blood cell culture)
# Test: Parasite LDH growth assay (antiparasite potency, Parasite Assay)
# Assay type: cell-based, Plasmodium falciparum
# Conditions: 0.7% rings, 2% haematocrit, 72 hours at 37° C., LDH readout of parasite growth
# Experimental: Assessing Antiparasite Potency in a Parasite LDH Growth Assay (Parasite Assay)
# The parasite stock was maintained at 4% haematocrit in RPMI-Hepes media buffered with sodium bicarbonate and supplemented with 5% heat inactivated human serum and 0.5% albumax.
# On the day of assay set up, a blood smear of the parasite culture was Giemsa stained and counted. The parasitemia was adjusted to 0.7% rings and the haematocrit was diluted to 2% in RPMI-Hepes media buffered with sodium bicarbonate and supplemented with 5% heat inactivated human serum and 0.5% albumax. 30 ul of diluted parasites are then added into 10 ul of media+compound in pre-prepared Greiner TC assay plates. Parasite assay plates were placed in gassed humidified boxes in single layer and allowed to incubate at 37° C. for 72 hours. After 72 hours growth, assay plates are sealed with parafilm and frozen flat, in single file at −80° C. overnight. On the following day, assay plates are allowed to thaw at room temperature for 4 hours to which an LDH assay is performed to measure parasite growth.
row,Compound,EC50 [nM]
1,"CCOC(=O)C1(C)Oc2ccccc2C1NC(=O)c1ccc2c(c1)[C@H](N1C(=N)NC(CC)(CC)CC1=O)CCO2 (stereo partly drawn) [Example 275, ethyl 3-[[(4R)-4-(4,4-diethyl-2-imino-6-oxo-hexahydropyrimidin-1-yl)chromane-6-carbonyl]amino]-2-methyl-3H-benzofuran-2-carboxylate]",25.7
2,"CC1(C)CC(=O)N([C@@H]2CCOc3ccc(C(=O)NC4c5ccccc5OCC4(O)C(F)(F)F)cc32)C(=N)N1 (single isomer, unassigned) [Example 234B]",3.9
3,"CCC1(CC)CC(=O)N([C@H]2c3cc(C(=O)NC4c5ccccc5CC4(C)O)ccc3OC2(C)COC)C(=N)N1 (stereo partly drawn) [Example 77A, (2S,3S)-3-(4,4-diethyl-2-imino-6-oxotetrahydropyrimidin-1(2H)-yl)-N-(2-hydroxy-2-methyl-2,3-dihydro-1H-inden-1-yl)-2-(methoxymethyl)-2-methyl-2,3-dihydrobenzofuran-5-carboxamide]",57.1
4,"COCC1(C)Oc2ccc(C(=O)N[C@H]3CC(C)(C)Oc4ccccc43)cc2C1N1C(=N)NC(C)(C)CC1=O (single isomer, unassigned) [Example 214A]",8.2
5,"CCC1(CC)CC(=O)N([C@@H]2CC(COC)Oc3ccc(C(=O)N[C@H]4CC(C)(C)Oc5ccccc54)cc32)C(=N)N1 (single isomer, unassigned) [Example 16A]",0.6
6,"CCC1(CC)CC(=O)N([C@@H]2CC(C)(C)Oc3ccc(C(=O)N[C@@H]4c5ccccc5CC4(C)O)cc32)C(=N)N1 (single isomer, unassigned) [Example 42A]",1
7,"CC(C)[C@]1(C)CC(=O)N([C@@H]2CC(C)(C)Oc3ccc(C(=O)N[C@@H]4c5ccccc5CC4(C)O)cc32)C(=N)N1 (single isomer, unassigned) [Example 43A]",8.1

# Same assay, conditions: Plasmodium falciparum, Erythrocyte, 72 h, 0.7% rings, 2% haematocrit, 72 hours at 37° C., LDH readout of parasite growth
row,Compound,EC50 [nM]
1,"CC1(C)CC(=O)N([C@@H]2CCOc3ccc(C(=O)N[C@@H]4c5cc(Cl)cc(Cl)c5OC[C@@]4(C)O)cc32)C(=N)N1 [Example 273, (4R)-N-[(3S,4R)-6,8-dichloro-3-hydroxy-3-methyl-chroman-4-yl]-4-(2-imino-4,4-dimethyl-6-oxo-hexahydropyrimidin-1-yl)chromane-6-carboxamide]",7.8
2,"CCC1(CC)CC(=O)N([C@@H]2CCCOc3ccc(C(=O)N[C@@H]4c5ccccc5OC(C)(C)[C@H]4O)cc32)C(=N)N1 [Example 248, (5R)-5-(4,4-diethyl-2-imino-6-oxo-hexahydropyrimidin-1-yl)-N-[(3S,4R)-3-hydroxy-2,2-dimethyl-chroman-4-yl]-2,3,4,5-tetrahydro-1-benzoxepine-7-carboxamide]",0.8
3,"C[C@H]1C[C@H](N2C(=N)NC(C)(C)CC2=O)c2cc(C(=O)N[C@@H]3c4ccccc4OC(C)(C)[C@H]3O)ccc21 [Example 139, (1S,3S)-N-[(3S,4R)-3-hydroxy-2,2-dimethyl-chroman-4-yl]-3-(2-imino-4,4-dimethyl-6-oxo-hexahydropyrimidin-1-yl)-1-methyl-indane-5-carboxamide]",180
4,"CCC1(CC)CC(=O)N([C@@H]2C[C@@H](OC)c3ccc(C(=O)N[C@@H]4c5ccccc5OC(C)(C)[C@H]4O)cc32)C(=N)N1 [Example 236, (1R,3R)-3-(4,4-diethyl-2-imino-6-oxo-hexahydropyrimidin-1-yl)-N-[(3S,4R)-3-hydroxy-2,2-dimethyl-chroman-4-yl]-1-methoxy-indane-5-carboxamide]",0.9
5,"CC1(C)CC(=O)N([C@@H]2CC(C)(C)Oc3ccc(C(=O)N[C@H]4c5cc(F)ccc5OC(C)(C)[C@@H]4O)cc32)C(=N)N1 [Example 58A, (R)-N-((3R,4S)-6-fluoro-3-hydroxy-2,2-dimethylchroman-4-yl)-4-(2-imino-4,4-dimethyl-6-oxotetrahydropyrimidin-1(2H)-yl)-2,2-dimethylchromane-6-carboxamide]",250
6,"CC[C@]1(C)CC(=O)N(C2c3cc(C(=O)N[C@@H]4c5ccccc5C[C@H]4O)ccc3OCC2(C)OC)C(=N)N1 (stereo partly drawn) [Example 180, 4-[(4R)-4-ethyl-2-imino-4-methyl-6-oxo-hexahydropyrimidin-1-yl]-N-[(1R,2R)-2-hydroxyindan-1-yl]-3-methoxy-3-methyl-chromane-6-carboxamide]",65.4
7,"CCC1(CC)CC(=O)N([C@@H]2CCOc3ccc(C(=O)N[C@@H]4c5ccccc5OC(C)(C)[C@H]4O)nc32)C(=N)N1 [Example 30A, (R)-4-(4,4-diethyl-2-imino-6-oxotetrahydropyrimidin-1(2H)-yl)-N-((3S,4R)-3-hydroxy-2,2-dimethylchroman-4-yl)-3,4-dihydro-2H-pyrano[3,2-b]pyridine-6-carboxamide]",0.8
8,"CCC1(CC)CC(=O)N([C@@H]2CC(C)(C)Oc3ccc(C(=O)N[C@H]4CCOc5ccccc54)cc32)C(=N)N1 [Example 33A, (R)-N-((S)-chroman-4-yl)-4-(4,4-diethyl-2-imino-6-oxotetrahydropyrimidin-1(2H)-yl)-2,2-dimethylchromane-6-carboxamide]",28.3
9,"CCC1(CC)CC(=O)N([C@@H]2CCOc3c(C#N)cc(C(=O)N[C@H]4CC(C)(C)Oc5ccccc54)cc32)C(=N)N1 [Example 27A, (R)-8-cyano-4-(4,4-diethyl-2-imino-6-oxotetrahydropyrimidin-1yl)-N-((S)-2,2-dimethylchroman-4-yl)chromane-6-carboxamide]",1.3
10,"CCC1(CC)CC(=O)N([C@@H]2CC3(COC3)Oc3ccc(C(=O)N[C@H]4CC(C)(C)Oc5ccccc54)cc32)C(=N)N1 [Example 22A, (R)-4-(4,4-diethyl-2-imino-6-oxotetrahydropyrimidin-1(2H)-yl)-N-((S)-2,2-dimethylchroman-4-yl)spiro[chromane-2,3′-oxetane]-6-carboxamide]",0.7
11,"CCC1(CC)CC(=O)N([C@@H]2CCOc3ccc(C(=O)NC(CCc4ccccc4)c4ccccc4)cc32)C(=N)N1 (stereo partly drawn) [Example 264, (4R)-4-(4,4-diethyl-2-imino-6-oxo-hexahydropyrimidin-1-yl)-N-(1,3-diphenylpropyl)chromane-6-carboxamide]",3.3
12,"CCC1(CC)CC(=O)N([C@@H]2CCCc3ccc(C(=O)N[C@@H]4c5ccccc5OC(C)(C)[C@H]4O)cc32)C(=N)N1 [Example 201, (4R)-4-(4,4-diethyl-2-imino-6-oxo-hexahydropyrimidin-1-yl)-N-[(3S,4R)-3-hydroxy-2,2-dimethyl-chroman-4-yl]tetralin-6-carboxamide]",1.4
13,"CCC1(CC)CC(=O)N([C@@H]2C[C@@H](COCCOCCOCCN)Oc3ccc(C(=O)N[C@H]4CC(C)(C)Oc5ccccc54)cc32)C(=N)N1 [Example 310, (2S,4R)-2-[2-[2-(2-aminoethoxy)ethoxy]ethoxymethyl]-4-(4,4-diethyl-2-imino-6-oxo-hexahydropyrimidin-1-yl)-N-[(4S)-2,2-dimethylchroman-4-yl]chromane-6-carboxamide]",211
14,"CC[C@]1(C)CC(=O)N([C@H]2c3cc(C(=O)N[C@@H]4c5ccccc5OC[C@@]4(C)O)ccc3OC[C@@H]2COC)C(=N)N1 [Example 252, (3S,4R)-4-[(4R)-4-ethyl-2-imino-4-methyl-6-oxo-hexahydropyrimidin-1-yl]-N-[(3S,4R)-3-hydroxy-3-methyl-chroman-4-yl]-3-(methoxymethyl)chromane-6-carboxamide]",2.1
15,"CC1(C)CC(=O)N(C2c3cc(C(=O)N[C@@H]4c5ccccc5C[C@]4(C)O)ccc3OC2(C)C)C(=N)N1 (stereo partly drawn) [Example 108, N-[(1R,2S)-2-hydroxy-2-methyl-indan-1-yl]-3-(2-imino-4,4-dimethyl-6-oxo-hexahydropyrimidin-1-yl)-2,2-dimethyl-3H-benzofuran-5-carboxamide]",74.3
16,"CCC1(CC)CC(=O)N(C2c3cc(C(=O)N[C@@H]4c5ccccc5C[C@@]4(C)O)ccc3OC2(COC)COC)C(=N)N1 (stereo partly drawn) [Example 297, 3-(4,4-diethyl-2-imino-6-oxo-hexahydropyrimidin-1-yl)-N-[(1R,2R)-2-hydroxy-2-methyl-indan-1-yl]-2,2-bis(methoxymethyl)-3H-benzofuran-5-carboxamide]",241
17,"CCC1(CC)CC(=O)N([C@@H]2c3cc(C(=O)N[C@@H]4c5ccccc5OC[C@@]4(C)O)ccc3OC[C@@H]2COC)C(=N)N1 [Example 286, (3S,4S)-4-(4,4-diethyl-2-imino-6-oxo-hexahydropyrimidin-1-yl)-N-[(3S,4R)-3-hydroxy-3-methyl-chroman-4-yl]-3-(methoxymethyl)chromane-6-carboxamide]",240
18,"CCC1(CC)CC(=O)N([C@@H]2CCc3ccc(C(=O)N[C@@H]4c5ccccc5OC[C@]4(C)O)cc32)C(=N)N1 [Example 122, (3R)-3-(4,4-diethyl-2-imino-6-oxo-hexahydropyrimidin-1-yl)-N-[(3R,4R)-3-hydroxy-3-methyl-chroman-4-yl]indane-5-carboxamide]",3.9
19,"C[C@@H]1C[C@@H](N2C(=N)NC(C)(C)CC2=O)c2cc(C(=O)N[C@@H]3c4ccccc4C[C@]3(C)O)ccc21 [Example 90, (1R,3R)-N-[(1R,2S)-2-hydroxy-2-methyl-indan-1-yl]-3-(2-imino-4,4-dimethyl-6-oxo-hexahydropyrimidin-1-yl)-1-methyl-indane-5-carboxamide]",26.8
20,"CC[C@]1(C)CC(=O)N(C2c3cc(C(=O)N[C@@H]4c5ccccc5OC(C)(C)[C@H]4O)ccc3OCC2(C)C)C(=N)N1 (stereo partly drawn) [Example 243, 4-[(4R)-4-ethyl-2-imino-4-methyl-6-oxo-hexahydropyrimidin-1-yl]-N-[(3S,4R)-3-hydroxy-2,2-dimethyl-chroman-4-yl]-3,3-dimethyl-chromane-6-carboxamide]",6.1
